Measured values taken from US10479786B2, “Protein kinase inhibitors” (Princeton Drug Discovery Inc, priority 2016, dated 2019).

Assays:
ABL(E255K) = target: T1, ABL(E255K) (Homo sapiens, UniProt P00519, E255K); experiment: Off-chip Mobility Shift Assay, kinase inhibition; format: biochemical; details: recombinant ABL(E255K); for inhibition at 0.001 µM: at 1 nM; for inhibition at 0.01 µM: at 10 nM
T1 construct: purchased Carna Biosciences, Inc

ACK = target: T2, ACK (Homo sapiens, UniProt Q07912); experiment: Off-chip Mobility Shift Assay, kinase inhibition; format: biochemical; details: recombinant ACK; for inhibition at 0.01 µM: at 10 nM
T2 construct: purchased Carna Biosciences, Inc

ARG = target: T3, ARG (Homo sapiens, UniProt P42684); experiment: Off-chip Mobility Shift Assay, kinase inhibition; format: biochemical; details: recombinant ARG; for inhibition at 0.01 µM: at 10 nM, read-out: inhibition
T3 construct: purchased Carna Biosciences, Inc

BLK = target: T4, BLK (Homo sapiens, UniProt P51451); experiment: Off-chip Mobility Shift Assay, kinase inhibition; format: biochemical; details: recombinant BLK; for inhibition at 0.01 µM: at 10 nM
T4 construct: purchased Carna Biosciences, Inc

BTK = target: T5, BTK (Homo sapiens, UniProt Q06187); experiment: Off-chip Mobility Shift Assay, kinase inhibition; format: biochemical; details: recombinant BTK; for inhibition at 0.001 µM: at 1 nM; for inhibition at 0.01 µM: at 10 nM
T5 construct: purchased Carna Biosciences, Inc

FGR = target: T6, FGR (Homo sapiens, UniProt P09769); experiment: Off-chip Mobility Shift Assay, kinase inhibition; format: biochemical; details: recombinant FGR; for inhibition at 0.01 µM: at 10 nM, read-out: inhibition
T6 construct: purchased Carna Biosciences, Inc

FYN(isoform a) = target: T7, FYN(isoform a) (Homo sapiens, UniProt P06241); experiment: Off-chip Mobility Shift Assay, kinase inhibition; format: biochemical; details: recombinant FYN(isoform a); for inhibition at 0.01 µM: at 10 nM
T7 construct: purchased Carna Biosciences, Inc

HCK = target: T8, HCK (Homo sapiens, UniProt P08631); experiment: Off-chip Mobility Shift Assay, kinase inhibition; format: biochemical; details: recombinant HCK; for inhibition at 0.001 µM: at 1 nM; for inhibition at 0.01 µM: at 10 nM, read-out: inhibition
T8 construct: purchased Carna Biosciences, Inc

LCK = target: T9, LCK (Homo sapiens, UniProt P06239); experiment: Off-chip Mobility Shift Assay, kinase inhibition; format: biochemical; details: recombinant LCK; for inhibition at 0.001 µM: at 1 nM; for inhibition at 0.01 µM: at 10 nM
T9 construct: purchased Carna Biosciences, Inc

PDGFRα = target: T10, PDGFRα (Homo sapiens, UniProt P16234); experiment: Off-chip Mobility Shift Assay, kinase inhibition; format: biochemical; details: recombinant PDGFRα; for inhibition at 0.01 µM: at 10 nM, read-out: inhibition
T10 construct: purchased Carna Biosciences, Inc

SRC = target: T11, SRC (Homo sapiens, UniProt P12931); experiment: Off-chip Mobility Shift Assay, kinase inhibition; format: biochemical; details: recombinant SRC; for inhibition at 0.001 µM: at 1 nM; for inhibition at 0.01 µM: at 10 nM
T11 construct: purchased Carna Biosciences, Inc

YES = target: T12, YES (Homo sapiens, UniProt P07947); experiment: Off-chip Mobility Shift Assay, kinase inhibition; format: biochemical; details: recombinant YES; for inhibition at 0.001 µM: at 1 nM; for inhibition at 0.01 µM: at 10 nM
T12 construct: purchased Carna Biosciences, Inc

TEC = target: T13, TEC (Homo sapiens, UniProt P42680); experiment: Off-chip Mobility Shift Assay, kinase inhibition; format: biochemical; details: at 1 nM; recombinant TEC
T13 construct: purchased Carna Biosciences, Inc
T13 sequence (P42680 1-631): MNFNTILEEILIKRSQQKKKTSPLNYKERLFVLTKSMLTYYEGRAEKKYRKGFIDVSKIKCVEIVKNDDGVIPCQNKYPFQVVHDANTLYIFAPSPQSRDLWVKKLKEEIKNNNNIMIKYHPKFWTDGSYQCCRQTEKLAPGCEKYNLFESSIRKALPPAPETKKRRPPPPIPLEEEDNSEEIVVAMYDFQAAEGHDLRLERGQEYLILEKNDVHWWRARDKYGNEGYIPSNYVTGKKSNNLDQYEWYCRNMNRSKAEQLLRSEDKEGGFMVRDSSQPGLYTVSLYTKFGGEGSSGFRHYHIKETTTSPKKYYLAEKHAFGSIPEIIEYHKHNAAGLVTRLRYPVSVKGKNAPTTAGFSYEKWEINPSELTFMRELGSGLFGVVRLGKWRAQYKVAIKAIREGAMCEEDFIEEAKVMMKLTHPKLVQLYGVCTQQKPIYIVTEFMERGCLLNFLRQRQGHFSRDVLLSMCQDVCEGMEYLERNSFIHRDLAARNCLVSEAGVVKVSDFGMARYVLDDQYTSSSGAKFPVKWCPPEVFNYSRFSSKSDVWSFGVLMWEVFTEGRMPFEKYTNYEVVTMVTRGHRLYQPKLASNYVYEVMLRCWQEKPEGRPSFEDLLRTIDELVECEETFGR

[1] = test system: battery of selected protein kinases; experiment: In vitro screen of a battery of selected protein kinases (summary statement); format: biochemical; details: BTK, BMX, ABL, ABL(E255K), SRC, ACK, ARG, BLK, DDR2, EPHA, FGR, FMS, FRK, FYN, HCK, LCK, LYN, PDGFRα, PDGFRβ, YES, PIK3CA/PIK3R1, among others
SU-DHL-4 = experiment: Cell inhibition assay (PrestoBlue, 48 h); format: cell-based; details: Homo sapiens, SU-DHL-4, 48 h, SU-DHL-4 diffuse large B-cell lymphoma cells, read-out: IC50, inhibition of growth
Mino = experiment: Cell inhibition assay (PrestoBlue, 48 h); format: cell-based; details: Homo sapiens, Mino cells, read-out: IC50, inhibition of growth
[2] = Metabolic stability in human liver microsomes; format: in vitro ADME; details: human liver microsomes
Method: FIG. 1. Metabolic stability of compounds in human liver microsomal incubations. […] Concentrations at specified times were determined by LC-MS/MS.
The incubation reactions at various time points were quenched by adding 2× volumes of acetonitrile containing 100 nM reserpine. The quenched incubation samples were centrifuged at 4000 RPM for 10 min, and the supernatants injected for LC/MS/MS analysis. LC/MS/MS analysis was carried out on a AB Sciex 4000 Q Trap LC/MS/MS system coupled with Shimadzu Prominence UFLCXR 20 series (including a CBM-20A controller, two LC-20ADXR solvent delivery units, SIL-20AC HT autosampler, CTO-20A column oven, and a SPD-20A UV detector).

T2 sequence (Q07912 whole entry): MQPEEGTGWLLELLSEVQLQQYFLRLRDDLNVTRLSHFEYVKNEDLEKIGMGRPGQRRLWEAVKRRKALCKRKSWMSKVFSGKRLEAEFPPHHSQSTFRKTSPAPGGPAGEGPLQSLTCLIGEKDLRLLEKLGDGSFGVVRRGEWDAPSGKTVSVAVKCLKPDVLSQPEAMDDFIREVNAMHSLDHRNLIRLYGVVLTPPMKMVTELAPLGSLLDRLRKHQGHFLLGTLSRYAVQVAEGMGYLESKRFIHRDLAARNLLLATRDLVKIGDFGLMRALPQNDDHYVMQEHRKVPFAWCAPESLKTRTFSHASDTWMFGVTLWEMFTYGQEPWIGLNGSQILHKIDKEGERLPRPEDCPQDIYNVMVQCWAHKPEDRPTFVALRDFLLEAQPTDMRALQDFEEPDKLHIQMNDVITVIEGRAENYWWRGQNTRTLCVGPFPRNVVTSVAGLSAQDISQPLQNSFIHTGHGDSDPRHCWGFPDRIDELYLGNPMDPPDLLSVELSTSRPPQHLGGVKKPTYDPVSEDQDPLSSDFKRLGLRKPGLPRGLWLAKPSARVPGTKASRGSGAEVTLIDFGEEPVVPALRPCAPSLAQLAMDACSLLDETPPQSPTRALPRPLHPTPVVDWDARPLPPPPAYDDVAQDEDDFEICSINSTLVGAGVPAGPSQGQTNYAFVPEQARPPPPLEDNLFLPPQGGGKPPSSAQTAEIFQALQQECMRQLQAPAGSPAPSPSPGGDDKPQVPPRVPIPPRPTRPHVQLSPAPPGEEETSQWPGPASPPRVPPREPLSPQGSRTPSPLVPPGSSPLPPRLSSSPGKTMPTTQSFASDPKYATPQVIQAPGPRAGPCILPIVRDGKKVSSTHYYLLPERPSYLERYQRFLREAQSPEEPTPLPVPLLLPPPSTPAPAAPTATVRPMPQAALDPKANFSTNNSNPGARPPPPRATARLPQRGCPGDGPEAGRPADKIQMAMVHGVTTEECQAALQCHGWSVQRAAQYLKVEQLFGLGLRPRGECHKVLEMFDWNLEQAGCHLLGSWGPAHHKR
T8 sequence (P08631 whole entry): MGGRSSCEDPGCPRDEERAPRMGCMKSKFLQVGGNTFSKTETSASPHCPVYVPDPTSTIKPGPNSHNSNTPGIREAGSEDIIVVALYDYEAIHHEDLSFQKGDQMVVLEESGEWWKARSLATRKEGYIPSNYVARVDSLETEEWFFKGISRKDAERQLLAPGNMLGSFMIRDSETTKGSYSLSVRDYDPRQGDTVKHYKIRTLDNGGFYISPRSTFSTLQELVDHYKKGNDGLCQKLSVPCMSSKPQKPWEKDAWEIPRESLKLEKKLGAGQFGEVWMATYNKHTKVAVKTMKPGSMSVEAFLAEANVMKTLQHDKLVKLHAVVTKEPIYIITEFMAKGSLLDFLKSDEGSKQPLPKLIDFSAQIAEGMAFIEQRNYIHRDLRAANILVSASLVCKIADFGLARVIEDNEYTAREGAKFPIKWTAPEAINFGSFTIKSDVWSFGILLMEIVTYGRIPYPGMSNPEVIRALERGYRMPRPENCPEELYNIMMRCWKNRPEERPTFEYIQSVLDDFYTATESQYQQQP
T12 sequence (P07947 whole entry): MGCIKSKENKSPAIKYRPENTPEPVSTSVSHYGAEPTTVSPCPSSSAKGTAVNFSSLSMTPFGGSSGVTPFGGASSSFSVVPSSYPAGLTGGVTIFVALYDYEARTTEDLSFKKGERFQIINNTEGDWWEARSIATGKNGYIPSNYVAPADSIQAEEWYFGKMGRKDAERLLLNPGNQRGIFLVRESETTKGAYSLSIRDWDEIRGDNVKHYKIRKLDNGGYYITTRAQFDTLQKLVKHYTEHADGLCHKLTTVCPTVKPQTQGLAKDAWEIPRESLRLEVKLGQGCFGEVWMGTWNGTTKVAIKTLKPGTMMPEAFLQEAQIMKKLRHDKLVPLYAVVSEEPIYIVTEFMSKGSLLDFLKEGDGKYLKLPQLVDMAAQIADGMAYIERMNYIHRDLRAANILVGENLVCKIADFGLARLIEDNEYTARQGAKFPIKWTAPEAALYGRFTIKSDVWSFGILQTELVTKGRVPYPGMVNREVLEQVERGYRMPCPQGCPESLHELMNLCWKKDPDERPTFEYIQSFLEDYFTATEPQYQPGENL
T9 sequence (P06239 whole entry): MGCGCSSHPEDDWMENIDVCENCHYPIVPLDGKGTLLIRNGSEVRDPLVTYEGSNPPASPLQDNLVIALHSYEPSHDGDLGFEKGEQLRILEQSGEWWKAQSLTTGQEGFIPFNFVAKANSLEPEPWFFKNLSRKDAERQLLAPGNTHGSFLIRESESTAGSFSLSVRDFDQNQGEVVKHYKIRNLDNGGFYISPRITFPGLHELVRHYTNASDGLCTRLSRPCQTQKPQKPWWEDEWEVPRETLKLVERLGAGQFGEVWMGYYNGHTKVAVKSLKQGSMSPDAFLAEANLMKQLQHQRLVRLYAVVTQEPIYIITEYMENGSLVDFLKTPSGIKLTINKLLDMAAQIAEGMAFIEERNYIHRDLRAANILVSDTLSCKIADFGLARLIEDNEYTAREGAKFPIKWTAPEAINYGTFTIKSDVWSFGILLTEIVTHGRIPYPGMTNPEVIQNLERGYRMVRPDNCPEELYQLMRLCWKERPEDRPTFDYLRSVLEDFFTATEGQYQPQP
T11 sequence (P12931 whole entry): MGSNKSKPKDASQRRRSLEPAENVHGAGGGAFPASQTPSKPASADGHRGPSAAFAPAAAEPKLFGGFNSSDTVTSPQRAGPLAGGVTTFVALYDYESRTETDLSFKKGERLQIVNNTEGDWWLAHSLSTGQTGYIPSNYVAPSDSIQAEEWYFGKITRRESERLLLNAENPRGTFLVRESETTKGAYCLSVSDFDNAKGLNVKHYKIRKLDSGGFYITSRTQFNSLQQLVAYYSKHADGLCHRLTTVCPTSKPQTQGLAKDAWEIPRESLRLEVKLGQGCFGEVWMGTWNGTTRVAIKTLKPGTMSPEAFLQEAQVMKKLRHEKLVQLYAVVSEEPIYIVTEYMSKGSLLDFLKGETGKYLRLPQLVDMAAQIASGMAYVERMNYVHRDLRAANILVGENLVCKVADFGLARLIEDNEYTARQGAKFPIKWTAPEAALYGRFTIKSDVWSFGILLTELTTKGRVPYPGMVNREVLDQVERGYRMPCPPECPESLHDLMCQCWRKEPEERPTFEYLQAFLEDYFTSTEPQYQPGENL
T6 sequence (P09769 whole entry): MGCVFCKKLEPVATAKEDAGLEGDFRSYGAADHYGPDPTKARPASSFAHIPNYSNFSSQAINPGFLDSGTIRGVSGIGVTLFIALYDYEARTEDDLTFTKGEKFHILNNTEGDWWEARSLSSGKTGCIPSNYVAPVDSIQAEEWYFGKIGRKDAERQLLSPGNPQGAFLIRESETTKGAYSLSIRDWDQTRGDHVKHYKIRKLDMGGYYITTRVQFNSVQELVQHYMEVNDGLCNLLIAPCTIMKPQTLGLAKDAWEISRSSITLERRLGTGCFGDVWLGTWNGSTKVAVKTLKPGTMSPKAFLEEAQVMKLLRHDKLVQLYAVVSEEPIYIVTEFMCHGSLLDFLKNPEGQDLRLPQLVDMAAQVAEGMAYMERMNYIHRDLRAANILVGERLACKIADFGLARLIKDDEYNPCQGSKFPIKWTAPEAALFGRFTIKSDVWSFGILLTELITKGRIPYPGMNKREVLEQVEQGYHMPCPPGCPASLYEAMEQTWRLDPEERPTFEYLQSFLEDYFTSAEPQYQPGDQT
T4 sequence (P51451 whole entry): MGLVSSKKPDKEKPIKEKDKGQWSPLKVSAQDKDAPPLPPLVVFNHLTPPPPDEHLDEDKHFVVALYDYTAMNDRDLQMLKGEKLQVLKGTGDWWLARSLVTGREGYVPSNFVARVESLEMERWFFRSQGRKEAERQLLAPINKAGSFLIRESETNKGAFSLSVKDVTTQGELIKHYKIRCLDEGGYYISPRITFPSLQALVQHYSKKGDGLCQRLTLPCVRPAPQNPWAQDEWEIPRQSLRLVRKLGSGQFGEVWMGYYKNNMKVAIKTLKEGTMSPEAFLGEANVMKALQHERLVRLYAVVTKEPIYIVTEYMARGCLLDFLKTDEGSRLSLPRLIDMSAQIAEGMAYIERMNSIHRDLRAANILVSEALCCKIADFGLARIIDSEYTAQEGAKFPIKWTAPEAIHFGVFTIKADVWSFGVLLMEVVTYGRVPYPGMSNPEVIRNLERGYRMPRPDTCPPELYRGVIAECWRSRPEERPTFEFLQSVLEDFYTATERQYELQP
T7 sequence (P06241 whole entry, canonical isoform): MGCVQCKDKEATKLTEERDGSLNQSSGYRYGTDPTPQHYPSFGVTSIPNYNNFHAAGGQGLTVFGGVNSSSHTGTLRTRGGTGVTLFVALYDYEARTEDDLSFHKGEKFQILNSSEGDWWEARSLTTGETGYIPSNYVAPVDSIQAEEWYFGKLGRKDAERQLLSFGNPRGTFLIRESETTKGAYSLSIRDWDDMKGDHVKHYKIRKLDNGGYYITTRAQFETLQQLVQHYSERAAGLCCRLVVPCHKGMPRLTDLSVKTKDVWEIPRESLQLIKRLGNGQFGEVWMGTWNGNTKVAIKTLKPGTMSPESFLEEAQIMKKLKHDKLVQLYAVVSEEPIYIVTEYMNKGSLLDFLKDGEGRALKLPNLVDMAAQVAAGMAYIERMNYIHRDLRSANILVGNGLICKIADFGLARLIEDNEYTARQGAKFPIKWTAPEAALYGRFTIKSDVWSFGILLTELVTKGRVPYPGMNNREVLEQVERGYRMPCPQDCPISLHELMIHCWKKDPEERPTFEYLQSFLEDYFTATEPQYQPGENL

Cc1nc(Nc2ncc(C(=O)Nc3c(C)cccc3Cl)s2)cc(N2CCC(O)CC2)n1 [Compound IX, N-(2-chloro-6-methylphenyl)-2-[[2-methyl-6-(4-hydroxypiperidin-1-yl)pyrimidin-4-yl]amino]thiazole-5-carboxamide]
potent activity: activity to inhibit kinases [1]
< 50 nM: IC50 (Mino)
< 20 nM: IC50 (SU-DHL-4)
> 50%: inhibition at 0.001 µM (ABL(E255K)) | inhibition at 0.01 µM (ABL(E255K)) | inhibition at 0.01 µM (ACK) | inhibition at 0.01 µM (ARG) | inhibition at 0.01 µM (BLK) | inhibition at 0.001 µM (BTK) | inhibition at 0.01 µM (BTK) | inhibition at 0.01 µM (FGR) | inhibition at 0.01 µM (FYN(isoform a)) | inhibition at 0.001 µM (HCK) | inhibition at 0.01 µM (HCK) | inhibition at 0.001 µM (LCK) | inhibition at 0.01 µM (LCK) | inhibition at 0.01 µM (PDGFRα) | inhibition at 0.001 µM (SRC) | inhibition at 0.01 µM (SRC) | inhibition at 0.001 µM (YES) | inhibition at 0.01 µM (YES) | inhibition at 0.001 µM (TEC)

[2H]c1cc(C)c(NC(=O)c2cnc(Nc3cc(N4CCCCC4)nc(C)n3)s2)c(Cl)c1 [Compound I, N-(2-chloro-4-deuterio-6-methyl-phenyl)-2-[[2-methyl-6-(1-piperidyl)pyrimidin-4-yl]amino]thiazole-5-carboxamide]
< 50 nM: IC50 (Mino)
significantly greater stability: metabolic stability compared to dasatinib [2]
> 50%: inhibition at 0.001 µM (ABL(E255K)) | inhibition at 0.01 µM (ABL(E255K)) | inhibition at 0.001 µM (ACK; at 1 nM) | inhibition at 0.01 µM (ACK) | inhibition at 0.001 µM (ARG; at 1 nM) | inhibition at 0.01 µM (ARG) | inhibition at 0.001 µM (BLK; at 1 nM) | inhibition at 0.01 µM (BLK) | inhibition at 0.001 µM (BTK) | inhibition at 0.01 µM (BTK) | inhibition at 0.001 µM (FGR; at 1 nM) | inhibition at 0.01 µM (FGR) | inhibition at 0.001 µM (FYN(isoform a); at 1 nM) | inhibition at 0.01 µM (FYN(isoform a)) | inhibition at 0.001 µM (HCK) | inhibition at 0.01 µM (HCK) | inhibition at 0.001 µM (LCK) | inhibition at 0.01 µM (LCK) | inhibition at 0.001 µM (PDGFRα; at 1 nM) | inhibition at 0.01 µM (PDGFRα) | inhibition at 0.001 µM (SRC) | inhibition at 0.01 µM (SRC) | inhibition at 0.001 µM (YES) | inhibition at 0.01 µM (YES)
potent activity: activity to inhibit kinases [1]
< 20 nM: IC50 (SU-DHL-4)
